Data published in patent publication US20230120597A1, “CO-AGONISTS AT GLP-1 AND GIP RECEPTORS SUITABLE FOR ORAL DELIVERY” (Novo Nordisk A/S, priority 2020, published 2023).
Starred links: 1 amine or outer side, 2 acyl side, 3 side chain; linkers in the order of their positions; H or OH if unused. Non-standard residues stand in square brackets, D forms with d. Residues, ends and D or L forms follow the SMILES beside them. Groups on a side chain read outwards from the residue. *: point of attachment. C18 diacid = O=C(O)CCCCCCCCCCCCCCCCC(=O)*; γGlu = O=C(O)[C@H](CCC(=O)[*:2])N[*:1]; εLys = N[C@@H](CCCCN[*:1])C(=O)[*:2]; Aib = CC(C)(N)C(=O)O

Experiment: Pharmacokinetic study in dogs, oral dosing of tablet compositions with SNAC
Type: in vivo, Beagle dogs
Conditions: male, beagle, dog, in vivo, po
Method in brief: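 The tablets held 3-4 mg compound plus 100-300 mg SNAC and were given to fasted male beagles (6-8 per group); non-compartmental PK per animal.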

SMILES: CC[C@H](C)[C@H](NC(=O)[C@H](Cc1ccccc1)NC(=O)[C@H](CCC(=O)O)NC(=O)[C@H](CCCNC(=N)N)NC(=O)[C@H](C)NC(=O)[C@H](C)NC(=O)[C@H](CCC(N)=O)NC(=O)[C@H](CCCCNC(=O)[C@@H](N)CCCCNC(=O)[C@@H](N)CCCCNC(=O)CC[C@H](NC(=O)CCCCCCCCCCCCCCCCC(=O)O)C(=O)O)NC(=O)[C@H](CCC(=O)O)NC(=O)[C@H](CC(C)C)NC(=O)[C@H](CC(C)C)NC(=O)[C@@H](NC(=O)[C@H](CO)NC(=O)[C@H](Cc1ccc(O)cc1)NC(=O)[C@H](CC(=O)O)NC(=O)[C@H](CO)NC(=O)[C@@H](NC(=O)[C@H](Cc1ccccc1)NC(=O)[C@@H](NC(=O)CNC(=O)[C@H](CCC(=O)O)NC(=O)C(C)(C)NC(=O)[C@@H](N)Cc1ccc(O)cc1)[C@@H](C)O)[C@@H](C)O)[C@@H](C)CC)C(=O)N[C@@H](CC(N)=O)C(=O)N[C@@H](Cc1c[nH]c2ccccc12)C(=O)N[C@@H](CC(C)C)C(=O)N[C@@H](CC(C)C)C(=O)N[C@@H](C)C(=O)NCC(=O)NCC(=O)N1CCC[C@H]1C(=O)N[C@@H](CO)C(=O)N[C@@H](CO)C(=O)NCC(=O)N[C@@H](C)C(=O)N1CCC[C@H]1C(=O)N1CCC[C@H]1C(=O)N1CCC[C@H]1C(=O)N[C@@H](CO)C(=O)O [Compound No. 15] (H-Y[Aib]EGTFTSDYSILLEK([εLys-εLys-γGlu-C18 diacid])QAAREFINWLLAGGPSSGAPPPS-OH)
- Tmax (Tmax): 1.5 h
- half-life (t1/2): 2.46 days
